From US20240238425A1, “HSD17B13 Inhibitors and/or Degraders” (Pfizer Inc., priority 2022, published 2024) come the findings set out here.

The experiment has as its system HiBiT-HSD17β13 fusion protein (N-terminal HiBiT-tagged HSD17β13 isoform D) in Huh7 HiBiT-HSD17β13 OE cells. As to the kind of experiment: Whole-cell Huh7-HSD17B13 HiBiT assay (degrader potency and maximal efficacy, luminescence readout). Type of experiment: cell-based, human. As to conditions: 24 hour incubation, geometric mean, * = geometric mean for all forms tested (parent and salt forms); for DC50: read-out: Huh7_HIBIT-HSD17β13_DC50 GMean DC50; for Huh7_HIBIT-HSD17β13_DC50 GMean Asymptote Maximum: max. concentration 1 μM. In a few lines:
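Huh7 cells stably overexpressing N-terminal HiBiT-tagged HSD17β13 isoform D, clone matched to primary hepatocyte expression, were exposed to an 11-point, 1 in 3.162 dilution series (top 1 μM final) for 24 h at 37° C. Lytic HiBiT luminescence was normalised to DMSO and parental-cell controls; DC50 from four-parameter logistic fit, with CellTiter-Glo counter screen.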
On the technique in general: HiBiT is a short tag that completes a luciferase, so light tracks the accessible tagged protein.

Counter-ions that a name gives are not always drawn.

In general, DC50 refers to the concentration giving 50% degradation. As to `Cn1c(=O)n(C2CCC(=O)NC2=O)c2ccc(CCN3CCN(c4ccc(-c5noc([C@]67CC[C@](CNC(=O)c8cc(F)c(O)c(F)c8F)(CC6)CC7)n5)nn4)CC3)cc21` (mixture of isomers) [Example 55, N-{[4-(3-{6-[4-(2-{1-[(3RS)-2,6-dioxopiperidin-3-yl]-3-methyl-2-oxo-2,3-dihydro-1H-benzimidazol-5-yl}ethyl)piperazin-1-yl]pyridazin-3-yl}-1,2,4-oxadiazol-5-yl)bicyclo[2.2.2]octan-1-yl]methyl}-2,3,5-trifluoro-4-hydroxybenzamide, trifluoroacetate salt], the DC50 was found to be 490 pM and the “Huh7_HIBIT-HSD17β13_DC50 GMean Asymptote Maximum” value is 82%.

On to `Cl.Cn1c(=O)n(C2CCC(=O)NC2=O)c2ccc(CCCN3Cc4ccc(-c5ccc6cn(C7CCC(CNC(=O)c8cc(F)c(O)c(F)c8F)CC7)nc6c5)cc4C3)cc21` (racemic) [Example 1, N-{[(1r,4r)-4-{6-[2-(3-{1-[(3RS)-2,6-Dioxopiperidin-3-yl]-3-methyl-2-oxo-2,3-dihydro-1H-benzimidazol-5-yl}propyl)-2,3-dihydro-1H-isoindol-5-yl]-2H-indazol-2-yl}cyclohexyl]methyl}-2,3,5-trifluoro-4-hydroxybenzamide, hydrochloride salt], for which the DC50 is 110 pM and the “Huh7_HIBIT-HSD17β13_DC50 GMean Asymptote Maximum” value was 87* %.

In the case of `Cn1c(=O)n(C2CCC(=O)NC2=O)c2ccc(CCCN3Cc4cc(-c5ccc6cn([C@H]7CC[C@H](CNC(=O)c8cc(F)c(O)c(F)c8F)CC7)nc6c5)cnc4C3)cc21` (mixture of isomers) [Example 116, N-{[(1r,4r)-4-{6-[6-(3-{1-[(3RS)-2,6-dioxopiperidin-3-yl]-3-methyl-2-oxo-2,3-dihydro-1H-benzimidazol-5-yl}propyl)-6,7-dihydro-5H-pyrrolo[3,4-b]pyridin-3-yl]-2H-indazol-2-yl}cyclohexyl]methyl}-2,3,5-trifluoro-4-hydroxybenzamide, trifluoroacetate salt], the DC50 was 200 pM and the “Huh7_HIBIT-HSD17β13_DC50 GMean Asymptote Maximum” value came out at 88%.

As to `O=C1CCN(c2cnn3cc(CCCN4CCN(c5ncc(-c6ccc7cn([C@H]8CC[C@H](CNC(=O)c9cc(F)c(O)c(F)c9F)CC8)nc7c6)cn5)CC4)ccc23)C(=O)N1` [Example 53, N-{[(1r,4r)-4-{6-[2-(4-{3-[3-(2,4-dioxo-1,3-diazinan-1-yl)pyrazolo[1,5-a]pyridin-6-yl]propyl}piperazin-1-yl)pyrimidin-5-yl]-2H-indazol-2-yl}cyclohexyl]methyl}-2,3,5-trifluoro-4-hydroxybenzamide, trifluoroacetate salt], the DC50 came out at 780 pM and the “Huh7_HIBIT-HSD17β13_DC50 GMean Asymptote Maximum” value is given as 77%.

With `Cc1ccc(C(=O)N2CCN(CCOc3ncc(-c4ccc5cn(C6CCC(CNC(=O)c7cc(F)c(O)c(F)c7F)CC6)nc5c4)cn3)CC2)cc1N1CCC(=O)NC1=O.O=C(O)C(F)(F)F` (stereo not shown) [Example 7, N-{[(1r,4r)-4-{6-[2-(2-{4-[3-(2,4-Dioxo-1,3-diazinan-1-yl)-4-methylbenzoyl]piperazin-1-yl}ethoxy)pyrimidin-5-yl]-2H-indazol-2-yl}cyclohexyl]methyl}-2,3,5-trifluoro-4-hydroxybenzamide, trifluoroacetate salt], the DC50 was found to be 3000 pM and the “Huh7_HIBIT-HSD17β13_DC50 GMean Asymptote Maximum” value was 78* %.

In the case of `O=C1CCN(c2cnc3cc(CN4CCN(c5ncc(-c6ccc7cn([C@H]8CC[C@H](CNC(=O)c9cc(F)c(O)c(F)c9F)CC8)nc7c6)cn5)CC4)ccn23)C(=O)N1` [Example 50, N-{[(1r,4r)-4-{6-[2-(4-{[3-(2,4-dioxo-1,3-diazinan-1-yl)imidazo[1,2-a]pyridin-7-yl]methyl}piperazin-1-yl)pyrimidin-5-yl]-2H-indazol-2-yl}cyclohexyl]methyl}-2,3,5-trifluoro-4-hydroxybenzamide, trifluoroacetate salt], the DC50 is 910 pM and the “Huh7_HIBIT-HSD17β13_DC50 GMean Asymptote Maximum” value is 85%.

Consider `O=C1CCC(N2Cc3cc(N4CCC(CCN5CCN(c6nccc(-c7nc([C@]89CC[C@](CNC(=O)c%10cc(F)c(O)c(F)c%10F)(CC8)CC9)no7)n6)CC5)CC4)ccc3C2=O)C(=O)N1` (mixture of isomers) [Example 132, N-({4-[5-(2-{4-[2-(1-{2-[(3RS)-2,6-dioxopiperidin-3-yl]-1-oxo-2,3-dihydro-1H-isoindol-5-yl}piperidin-4-yl)ethyl]piperazin-1-yl}pyrimidin-4-yl)-1,2,4-oxadiazol-3-yl]bicyclo[2.2.2]octan-1-yl}methyl)-2,3,5-trifluoro-4-hydroxybenzamide, trifluoroacetate salt], for which the DC50 is 1600 pM and the “Huh7_HIBIT-HSD17β13_DC50 GMean Asymptote Maximum” value is 82%.

Regarding `Cl.Cn1c(=O)n(C2CCC(=O)NC2=O)c2cccc(CN3CCN(c4ncc(-c5ccc6cn([C@H]7CC[C@H](CNC(=O)c8cc(F)c(O)c(F)c8F)CC7)nc6c5)cn4)CC3)c21` (mixture of isomers) [Example 25, N-{[(1r,4r)-4-(6-{2-[4-({1-[(3RS)-2,6-dioxopiperidin-3-yl]-3-methyl-2-oxo-2,3-dihydro-1H-benzimidazol-4-yl}methyl)piperazin-1-yl]pyrimidin-5-yl}-2H-indazol-2-yl)cyclohexyl]methyl}-2,3,5-trifluoro-4-hydroxybenzamide, hydrochloride salt], the DC50 was 850 pM and the “Huh7_HIBIT-HSD17β13_DC50 GMean Asymptote Maximum” value worked out at 84%.

For the compound `Cn1c(=O)n(C2CCC(=O)NC2=O)c2ccc(CCN3CCC(Cc4ccc5cn([C@H]6CC[C@H](CNC(=O)c7cc(F)c(O)c(F)c7F)CC6)nc5c4)C(F)(F)C3)cc21` (mixture of isomers) [Example 64, N-{[(1r,4r)-4-(6-{[1-(2-{1-[(3RS)-2,6-dioxopiperidin-3-yl]-3-methyl-2-oxo-2,3-dihydro-1H-benzimidazol-5-yl}ethyl)-3,3-difluoropiperidin-4-yl]methyl}-2H-indazol-2-yl)cyclohexyl]methyl}-2,3,5-trifluoro-4-hydroxybenzamide, trifluoroacetate salt], the DC50 was 510 pM and the “Huh7_HIBIT-HSD17β13_DC50 GMean Asymptote Maximum” value is recorded as 85%.

Consider `Cn1c(=O)n(C2CCC(=O)NC2=O)c2ccc(CCN3CCOC4(C3)CN(c3ncc(-c5ccc6cn([C@H]7CC[C@H](CNC(=O)c8cc(F)c(O)c(F)c8F)CC7)nc6c5)cn3)C4)cc21` (mixture of isomers) [Example 79, N-{[(1r,4r)-4-(6-{2-[8-(2-{1-[(3RS)-2,6-dioxopiperidin-3-yl]-3-methyl-2-oxo-2,3-dihydro-1H-benzimidazol-5-yl}ethyl)-5-oxa-2,8-diazaspiro[3.5]nonan-2-yl]pyrimidin-5-yl}-2H-indazol-2-yl)cyclohexyl]methyl}-2,3,5-trifluoro-4-hydroxybenzamide, trifluoroacetate salt], for which the DC50 is 310 pM and the “Huh7_HIBIT-HSD17β13_DC50 GMean Asymptote Maximum” value turned out to be 78%.

With `Cn1c(=O)n(C2CCC(=O)NC2=O)c2ccc(CCCN3CCOC4(C3)CN(c3ccc5cn([C@H]6CC[C@H](CNC(=O)c7cc(F)c(O)c(F)c7F)CC6)nc5c3)C4)cc21` (mixture of isomers) [Example 98, N-{[(1r,4r)-4-{6-[8-(3-{1-[(3RS)-2,6-dioxopiperidin-3-yl]-3-methyl-2-oxo-2,3-dihydro-1H-benzimidazol-5-yl}propyl)-5-oxa-2,8-diazaspiro[3.5]nonan-2-yl]-2H-indazol-2-yl}cyclohexyl]methyl}-2,3,5-trifluoro-4-hydroxybenzamide, trifluoroacetate salt], the half-maximal degradation concentration (DC50) stood at 820 pM and the “Huh7_HIBIT-HSD17β13_DC50 GMean Asymptote Maximum” value came to 78%.

For `Cn1c(=O)n(C2CCC(=O)NC2=O)c2ccc(CCCN3CCn4c(-c5ccc6cn([C@H]7CC[C@H](CNC(=O)c8cc(F)c(O)c(F)c8F)CC7)nc6c5)cnc4C3)cc21` (mixture of isomers) [Example 31, N-{[(1r,4r)-4-{6-[7-(3-{1-[(3RS)-2,6-dioxopiperidin-3-yl]-3-methyl-2-oxo-2,3-dihydro-1H-benzimidazol-5-yl}propyl)-5,6,7,8-tetrahydroimidazo[1,2-a]pyrazin-3-yl]-2H-indazol-2-yl}cyclohexyl]methyl}-2,3,5-trifluoro-4-hydroxybenzamide, trifluoroacetate salt], the 50% degradation concentration (DC50) is 990 pM and the “Huh7_HIBIT-HSD17β13_DC50 GMean Asymptote Maximum” value came to 85%.

`Cn1c(=O)n(C2CCC(=O)NC2=O)c2ccc(CCN3CCN(c4nccc(-c5nc([C@]67CC[C@](CNC(=O)c8cc(F)c(O)c(F)c8F)(CC6)CC7)no5)n4)CC3)cc21` (mixture of isomers) [Example 60, N-{[4-(5-{2-[4-(2-{1-[(3RS)-2,6-dioxopiperidin-3-yl]-3-methyl-2-oxo-2,3-dihydro-1H-benzimidazol-5-yl}ethyl)piperazin-1-yl]pyrimidin-4-yl}-1,2,4-oxadiazol-3-yl)bicyclo[2.2.2]octan-1-yl]methyl}-2,3,5-trifluoro-4-hydroxybenzamide, trifluoroacetate salt]: the DC50 was determined as 650 pM and the “Huh7_HIBIT-HSD17β13_DC50 GMean Asymptote Maximum” value was 78%.

Turning to `Cn1c(=O)n(C2CCC(=O)NC2=O)c2ccc(CCCN3CCc4nc(-c5ccc6cn([C@H]7CC[C@H](CNC(=O)c8cc(F)c(O)c(F)c8F)CC7)nc6c5)sc4C3)cc21` (mixture of isomers) [Example 115, N-{[(1r,4r)-4-{6-[5-(3-{1-[(3RS)-2,6-dioxopiperidin-3-yl]-3-methyl-2-oxo-2,3-dihydro-1H-benzimidazol-5-yl}propyl)-4,5,6,7-tetrahydro[1,3]thiazolo[5,4-c]pyridin-2-yl]-2H-indazol-2-yl}cyclohexyl]methyl}-2,3,5-trifluoro-4-hydroxybenzamide, trifluoroacetate salt], the DC50 turned out to be 260 pM and the “Huh7_HIBIT-HSD17β13_DC50 GMean Asymptote Maximum” value is reported as 79%.
